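Briefly, cells in 96-well plates were exposed to five compound concentrations for 48 h, and endpoints were estimated by linear interpolation. The concentration for 50% growth inhibition is given as GI50. TGI is the concentration that stops growth completely.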
Experiments:
Test in all cases: NCI tumour cell line growth inhibition, 48 h
[1] = tested on: M14 melanoma
[2] = tested on: SW-620 colon
[3] = tested on: SR leukemia
[4] = tested on: HCT-15 colon
[5] = tested on: OVCAR-8 ovarian
[6] = tested on: SNB-75 CNS
[7] = tested on: RXF 393 renal
[8] = tested on: CCRF-CEM leukemia
[9] = tested on: HOP-62 NSCLC
[10] = tested on: NCI-H226 lung

SMILES	TGI [1] [µM]	TGI [2] [µM]	TGI [3] [µM]	TGI [4] [µM]	TGI [5] [µM]	TGI [6] [µM]	TGI [7] [µM]	TGI [8] [µM]	TGI [9] [µM]	TGI [10] [µM]	GI50 [1] [µM]	GI50 [2] [µM]	GI50 [3] [µM]	GI50 [4] [µM]	GI50 [5] [µM]	GI50 [6] [µM]	GI50 [7] [µM]	GI50 [8] [µM]	GI50 [9] [µM]	GI50 [10] [µM]
CCN(CC)CCN(C(=O)C(C)(C)C)c1ccccc1N	> 100	> 100	> 100	> 100	> 100	> 100	> 100	> 100	> 100	> 100	–	–	–	–	–	–	–	–	–	–
COc1cc(/C=C(\C#N)C(N)=C(C#N)C#N)cc(O)c1O	> 100	> 100	> 100	> 100	> 100	> 100	> 100	> 81.1	> 100	> 100	–	–	–	–	–	–	–	–	–	–
CC1(C)OC2C(COS(N)(=O)=O)SC(n3cnc4cncnc43)C2O1 (stereo not given)	> 100	> 100	> 100	> 100	> 100	> 100	> 100	> 100	> 100	> 100	> 100	> 100	> 100	> 100	> 100	> 100	> 100	> 100	> 100	> 100
CC(NC(=O)c1ccccc1)(C(=O)O)C(=O)O	> 100	> 100	> 100	> 100	> 100	> 100	> 100	> 100	> 100	> 100	–	–	–	–	–	–	–	–	–	–
CNC(=O)CN(CC(N)=O)C(N)=O	> 100	> 100	> 100	> 100	> 100	> 100	> 100	> 100	> 100	> 100	–	–	–	–	–	–	–	–	–	–
Cc1ccc(NC(=O)CC(=O)N2N=C(N(CCC#N)c3cccc(C)c3)CC2c2ccccc2)cc1 (stereo not given)	> 100	> 100	> 100	> 100	> 100	> 100	> 100	> 100	> 100	> 100	–	–	–	–	–	–	–	–	–	–
Oc1[nH]c2cc(Cl)ccc2c1/C=c1/ccc2c(c1)N=C(c1cc(F)cc(F)c1)N=2	3.69	9.32	8.53	14.7	10.3	6.07	6.27	3.47	8.44	31	1.52	1.1	2.22	3.37	2.92	1.6	2.08	0.657	1.35	5.78
CC(=O)Oc1ccc(/C=N/NC(N)=S)nc1	8.72	> 100	> 100	> 100	> 100	> 100	> 100	9.43	77.6	74.3	2.72	5.59	1.51	22.5	2.85	11.7	4.24	2.58	6.15	22.1
COc1cnc2cc(C(=O)O)c3ccccc3c2c1	> 100	> 100	> 100	> 100	> 100	> 100	> 100	> 100	> 100	> 100	–	–	–	–	–	–	–	–	–	–
CN1CCN(c2nc(-c3ccncc3)nc3sc4c(c23)CCCCCC4)CC1	18	25.6	12.2	24.3	26.3	7.75	19	28.8	19.4	34.2	5.32	11.9	2.81	11.3	12.2	1.4	4.08	8.05	6.5	10.4
COc1cccc(/C=C/C(=O)c2cc3c(N)c(C(=O)Nc4cccc5ccccc45)sc3nc2C)c1	4.69	3.1	> 50	1.86	4.08	3.15	1.9	> 50	3.21	3.27	1.31	0.538	0.296	0.624	1.23	1.02	0.803	0.256	1.14	1.2
CN(C=O)/C=C/c1cc(O)ccc1O	> 57.9	37.9	51.1	65.8	72.4	> 59	34.1	54.7	> 71.5	> 78.7	–	–	–	–	–	–	–	–	–	–
O=c1[nH]c2ccccc2n1-c1n[nH]c2ccccc12	88.2	> 100	73.1	> 100	> 100	> 100	> 100	> 100	> 100	55.4	29.2	39.4	18.1	31	35.3	41.9	43.6	15.2	33.2	18.9
Cc1cc(Cl)ccc1Nc1nc(C(F)(F)F)ccc1C(=O)N1CCN(c2cccc(Cl)c2)CC1	> 100	> 100	> 100	> 100	> 100	87.5	> 100	> 100	> 100	> 100	> 100	> 100	> 100	> 100	> 100	1.11	> 100	> 100	> 100	> 100
